Columns and labels:
[1] = target: T1, IRAK1 (Homo sapiens, UniProt P51617); experiment: Western blot for phospho-IRAK1 after IRAK-1/4 inhibitor treatment (time course); format: cell-based; conditions: UMSCC1 and UMSCC47 cells
T1 construct: endogenous in cells; host or cells: UMSCC1 and UMSCC47
Procedure: Western blotting. Whole cell lysates were harvested using Laemmli buffer and a total of 20 μg of protein was analyzed as described previously. Membranes were probed with DEK (1:1000, BD Biosciences, San Jose, Calif., USA), IRAK1 (1:1000, Santa Cruz Biotechnology, Dallas, Tex., USA (sc-7883)), TRAF6 (1:1000, Santa Cruz (sc-7221)), phospho-IRAK1 (Thr209, 1:800, Assay Biotechnology Company (A1074), Sunnyvale, Calif., USA), phospho-p38 (1:500, Cell Signaling Technologies (4361)), p38 (1:1000, Cell Signaling Technologies (9212)), phospho-ERK1/2 (1:1000, Cell Signaling Technologies (4377)), ERK1/2 (1:1000, Cell Signaling Technologies (4695)), phospho-IKKa/r3 (1:500, Cell Signaling Technologies (2697)), IKKa (1:1000, Cell Signaling Technologies (2682)), phospho-hcBa (1:500, Cell Signaling Technologies (9246)), hcBa (1:1000, Cell Signaling Technologies (4812)), a-tubulin-HRP (1:10,000 Cell Signaling Technologies (9099)), actin (1:10,000 a gift from James Lessard), and GAPDH (1:1000, Cell Signaling Technologies (5174)).
IRAK1 inhibitor. […]
Cells and media were collected 72 hours later and prepared and analyzed as above. For the time-course experiment, cells were plated and inhibitor was added the following day, with protein collected at 24, 48, and 72 hours and analyzed by western blot for IRAK1 inhibition.

[2] = test system: UMSCC1 cells; experiment: Flow cytometry for cleaved caspase-3 after IRAK1 inhibitor; format: cell-based, human; conditions: 72 hours, vs DMSO
Procedure: Flow cytometry for Cleaved Caspase-3. Lentivirally transduced cells were plated at equal densities and collected 48 hours later. Cells were fixed and prepped following the BD FITC Active Caspase-3 Apoptosis kit protocol (BD Biosciences). […] Analysis was performed on a BD FacsCanto and data analyzed on FlowJo software (Tree Star, Ashland, Oreg., USA). Experiments were performed 3 times with standard error of the mean (SEM) represented. IRAK1 inhibitor. UMSCC1 cells were plated at equal densities and IRAK1 inhibitor (IRAK-1/4 inhibitor, 15409, Sigma-Aldrich, St. Louis, Mo., USA) added the same day for caspase-3 flow cytometry experiments. DMSO was added in equal volume for a control. Cells and media were collected 72 hours later and prepared and analyzed as above. For the time-course experiment, cells were plated and inhibitor was added the following day, with protein collected at 24, 48, and 72 hours and analyzed by western blot for IRAK1 inhibition.

[3] = test system: melanoma cells; conditions: in vitro and in vivo; cited from earlier work
[4] = test system: MDS; conditions: cited from earlier work
[5] = test system: IRAK1 and IRAK4; conditions: cited from earlier work

T1 sequence (P51617 whole entry): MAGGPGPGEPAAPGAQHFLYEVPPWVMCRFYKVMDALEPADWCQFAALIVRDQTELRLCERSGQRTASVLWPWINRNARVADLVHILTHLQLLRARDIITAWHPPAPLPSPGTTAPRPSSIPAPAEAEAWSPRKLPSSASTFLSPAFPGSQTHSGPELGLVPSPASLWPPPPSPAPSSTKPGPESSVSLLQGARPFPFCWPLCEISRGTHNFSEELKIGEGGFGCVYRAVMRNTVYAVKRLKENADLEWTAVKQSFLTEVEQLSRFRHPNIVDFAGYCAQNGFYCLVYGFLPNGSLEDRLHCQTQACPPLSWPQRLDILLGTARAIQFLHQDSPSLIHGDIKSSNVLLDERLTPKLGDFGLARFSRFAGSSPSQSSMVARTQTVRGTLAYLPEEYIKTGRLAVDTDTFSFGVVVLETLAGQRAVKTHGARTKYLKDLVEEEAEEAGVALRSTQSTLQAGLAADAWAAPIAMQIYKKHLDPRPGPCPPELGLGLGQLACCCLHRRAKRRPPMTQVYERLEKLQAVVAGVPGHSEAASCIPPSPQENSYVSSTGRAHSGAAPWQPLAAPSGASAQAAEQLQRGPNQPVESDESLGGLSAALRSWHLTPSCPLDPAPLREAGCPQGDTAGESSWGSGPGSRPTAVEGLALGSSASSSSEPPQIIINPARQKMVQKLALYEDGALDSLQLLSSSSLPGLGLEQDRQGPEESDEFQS

## O=C(Nc1nc2ccccc2n1CCN1CCOCC1)c1cccc([N+](=O)[O-])c1 [IRAK-1/4 inhibitor, N-(2-morpholinylethyl)-2-(3-nitrobenzoylamido)-benzimidazole]
[1]; 1 μM or 10 μM final concentrations, indicated time-points, vs DMSO
  IRAK1 activation (phosphorylation of IRAK1, western blot): reduces IRAK1 activation
[1]; 10 μM, 24-72 hours post-treatment
  activation of IRAK1 (phosphorylation of IRAK1, western blot): attenuated activation of IRAK1
[2]
  apoptosis (cleaved caspase-3): Significantly increased apoptosis
[2]; listed as IRAK1-inhibitor
  apoptosis (cleaved caspase-3): increases apoptosis
[3]
  apoptosis in melanoma cells: increase apoptosis
[4]
  signaling and cell viability in MDS: inhibit signaling and cell viability
[5]
  kinase selectivity: selective for IRAK1 and IRAK4 and shows little specificity for other kinases
